Results on eight compounds are retold here after ChEMBL document CHEMBL1201862, “PubChem BioAssay data set” (2004).

Broadly, the GI50 is the concentration giving 50% growth inhibition.

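Exposure lasted 48 hours, with cells grown in 96-well plates and compounds tested at five concentrations. At the GI50, growth is halved.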 Calls of active or inactive are those of the source. Rule as the data show it: active = GI50 up to about 1.1 µM and inactive = higher. Some results are limits rather than exact numbers.

Among the test systems are SNB-19; A549; SW-620; OVCAR-3; SR; U-251; SF-295; Hs-578T; SF-539; A498; SNB-75; UO-31; SK-MEL-28; NCI-H522; K562; DU-145; RXF 393; KM12; Malme-3M.
Experiment in all cases: DTP human tumour cell line panel, 48 h

Take `CC(C)=C1C(=O)C[C@]2(C)C[C@H]3/C(=C(/C)CCC12)CC[C@@]3(C)O` (stereo partly drawn): the GI50 with SNB-19 was > 50 µM (inactive); with A549 it was > 50 µM (inactive); in the assay on SW-620 it was > 50 µM (inactive); in the assay with OVCAR-3, 37.7 µM (inactive); in the assay with SR, 20.7 µM (inactive); with U-251 it was > 50 µM (inactive). Besides, the GI50 in the assay with SF-295 is > 50 µM (inactive); in the assay with Hs-578T, > 50 µM (inactive); in the assay on SF-539 it was > 50 µM (inactive); in the assay on A498, > 50 µM (inactive); in the assay on SNB-75 it was 19.1 µM (inactive); in the assay with UO-31, > 50 µM (inactive). Further, the GI50 in the assay on SK-MEL-28 is > 50 µM (inactive); with NCI-H522 it was 29 µM (inactive); in the assay on K562, 22.2 µM (inactive); with DU-145 it was > 50 µM (inactive); in the assay with RXF 393 it was 40.9 µM (inactive); in the assay on KM12, 18.2 µM (inactive).

As for `CC(C)C1OCC(CO)CO1` (stereo not drawn), the GI50 with SNB-19, with A549, in the assay on SW-620, in the assay with OVCAR-3, in the assay on SR and in the assay with U-251 was > 100 µM (inactive) in each case. Besides, the GI50 with SF-295, in the assay on Hs-578T, with SF-539, in the assay with A498, in the assay on SNB-75 and with UO-31 was > 100 µM (inactive) throughout. Moreover, the GI50 with SK-MEL-28, with NCI-H522, in the assay on Malme-3M, in the assay on DU-145, with RXF 393 and with KM12 was > 100 µM (inactive) throughout.

Turning to `COc1ccc(N2C=Nn3c(nc4sc(C)c(C)c4c3=O)C2)cc1`, the GI50 in the assay with SNB-19, in the assay on A549, with SW-620, with SR, with U-251 and in the assay on SF-295 was > 100 µM (inactive) in each case. Further, the GI50 with Hs-578T is > 100 µM (inactive); in the assay with A498 it was 29.4 µM (inactive); in the assay on SNB-75, > 100 µM (inactive); in the assay on UO-31, > 100 µM (inactive); in the assay on SK-MEL-28 it was > 100 µM (inactive); in the assay on NCI-H522 it was > 100 µM (inactive). In addition, the GI50 was > 100 µM (inactive) in the assay on K562; > 100 µM (inactive) in the assay on Malme-3M; > 100 µM (inactive) with DU-145; 53.3 µM (inactive) with RXF 393; > 100 µM (inactive) in the assay on KM12.

On to `NNC1=Nc2ccc(Cl)cc2C(=S)N2CSCC12` (stereo not drawn), for which the GI50 in the assay on SNB-19, with A549, in the assay on SW-620, in the assay with OVCAR-3, with SR and with U-251 was > 100 µM (inactive) each time. Besides, the GI50 in the assay on SF-295, in the assay with Hs-578T, in the assay with A498, with SNB-75, with UO-31 and with SK-MEL-28 was > 100 µM (inactive) throughout. Besides, the GI50 in the assay with NCI-H522 is > 100 µM (inactive); in the assay on K562, > 100 µM (inactive); in the assay on Malme-3M it was > 100 µM (inactive); in the assay with DU-145, > 100 µM (inactive); in the assay with RXF 393, > 100 µM (inactive); in the assay on KM12 it was 34.6 µM (inactive).

For the compound `COc1cc2c(c3c1c(=O)c1ccccc1n3C)C=CC1(CCCC1)O2`, the GI50 is 18.5 µM (inactive) in the assay with SNB-19; 19.7 µM (inactive) in the assay with A549; 20.4 µM (inactive) with SW-620; 13.2 µM (inactive) in the assay with OVCAR-3; 7.94 µM (inactive) in the assay on SR; 12.8 µM (inactive) in the assay with U-251. The GI50 in the assay with SF-295 is 3.63 µM (inactive); in the assay with Hs-578T, 2.61 µM (inactive); with SF-539, 4.16 µM (inactive); with A498, 18 µM (inactive); in the assay with SNB-75, 11.8 µM (inactive); in the assay with SK-MEL-28, 13.9 µM (inactive). Also, the GI50 in the assay on NCI-H522 is 16.3 µM (inactive); in the assay with K562, 7.5 µM (inactive); with Malme-3M, 16.4 µM (inactive); in the assay on DU-145, 17.6 µM (inactive); in the assay on RXF 393, 5.61 µM (inactive); in the assay on KM12 it was 7.05 µM (inactive).

`COC1=CC(=O)C(C2(OC(C)C)OC(=O)C(Cl)=C2Cl)=CC1=O` (stereo not drawn): the GI50 in the assay with SNB-19 is > 100 µM (inactive); with A549 it was > 100 µM (inactive); in the assay with SW-620 it was > 100 µM (inactive); in the assay with OVCAR-3, > 100 µM (inactive); in the assay with SR, 0.0115 µM (active); in the assay on SF-295 it was > 100 µM (inactive). Moreover, the GI50 in the assay with Hs-578T was > 100 µM (inactive); with SF-539, > 100 µM (inactive); in the assay on A498, > 100 µM (inactive); in the assay on SNB-75 it was > 100 µM (inactive); in the assay with UO-31, 74.5 µM (inactive); in the assay on SK-MEL-28 it was > 100 µM (inactive). Further, the GI50 in the assay with NCI-H522 is 25.8 µM (inactive); with K562, < 0.01 µM (active); with Malme-3M, > 100 µM (inactive); in the assay on DU-145, > 100 µM (inactive); with RXF 393, > 100 µM (inactive); in the assay with KM12, > 100 µM (inactive).

Regarding `COc1cc(NC(C)=O)ccc1C(=O)N/N=C/c1ccco1`, the GI50 is > 100 µM (inactive) in the assay on SNB-19; > 100 µM (inactive) in the assay on A549; > 100 µM (inactive) in the assay on SW-620; > 100 µM (inactive) with OVCAR-3; 26.7 µM (inactive) in the assay with SR; > 100 µM (inactive) in the assay with SF-295. The GI50 in the assay on Hs-578T was > 100 µM (inactive); with SF-539, 44.2 µM (inactive); with A498, > 100 µM (inactive); in the assay with SNB-75, > 100 µM (inactive); with UO-31, 67.1 µM (inactive); in the assay on SK-MEL-28 it was > 100 µM (inactive). The GI50 with NCI-H522, in the assay with K562, in the assay on Malme-3M, in the assay with DU-145, in the assay on RXF 393 and in the assay with KM12 was > 100 µM (inactive) throughout.

Turning to `O/N=C1/COC(C(F)(F)F)(C(F)(F)F)C1`, the GI50 in the assay on SNB-19 was > 100 µM (inactive); in the assay with A549, > 100 µM (inactive); in the assay with SW-620, > 100 µM (inactive); in the assay on OVCAR-3, > 100 µM (inactive); in the assay on SR, 0.0573 µM (active); with U-251, > 100 µM (inactive). Also, the GI50 with SF-295, in the assay on Hs-578T, in the assay with SF-539, in the assay with A498, in the assay with SNB-75 and in the assay with UO-31 was > 100 µM (inactive) throughout. The GI50 with SK-MEL-28, with NCI-H522, in the assay with Malme-3M, with DU-145, in the assay on RXF 393 and in the assay on KM12 was > 100 µM (inactive) each time.
